SMILES strings stand for the structures.

The data set in a line: Gamma radiation resistance of gel formulas (Rounds 1-5). It counts as physicochemical. The conditions noted are these: Round 1; summary in words. The text has this:
Following several failed attempts to formulate a composition with suitable viscosity and other properties to function as a burn treatment, the Inventors obtained stable compositions which were sent for testing to assess stability under gamma radiation.
OVERVIEW: To incorporate: Polyaminopropyl biguanide (INCI name); Chemical name: Polyhexamethylene Biguanide Hydrochloride (PHMB) and later Oriel sea mineral complex into a gel formula that can withstand the impact of gamma radiation sterilisation.
5 rounds of formulas were sent out for gamma radiations as outlined below.
Round 1 Summary: Started with our current BD (Burn Dressing) Gel with hyaluronic acid (HA) formula to which various ingredients were added.
Carbopol is the thickening agent used in BD Gel with HA, the only experiment in round 1 to which PHMB was added.
Round 2 Summary: Since PHMB was incompatible with Carbopol, new formulas containing various other thickeners were tried. Since propylene glycol, a humectant helped, another humectant (propanediol) was tried. For all the experimental batches made, only the stable formulas were sent out for gamma radiation. Only some of round 2 formulas contain PHMB (20% solution) @0.2% […]
In round 5, the final formula was determined from a selection of which were sent out for gamma radiation with acceptable results. […]

With `CC(O)CO` (stereo not shown) [propylene glycol, 1,2-Propanediol], the “Change following gamma radiation” value is listed as “little or no change”.

Source of the values: patent US11040066B2, “Topical composition for use in the treatment of burns” (Safeguard Medical Holdco, LLC, priority 2017, dated 2021).
